Experiments:
[1] = tested on: human bone marrow cells stimulated with MIP-1α; assay: Formation of human osteoclasts (23c6-positive multinucleated cells) in long-term marrow cultures; type: cell-based; settings: for increase in the number of osteoclasts formed over untreated marrow: 200 pg/ml MIP-1α or 10^−8 M 1,25-(OH)2D3 alone, 23c6-positive cells, about three weeks, FIG. 3
Procedure: Human long-term marrow cultures were performed as described in D. E. Hughes et al., “Estrogen promotes apoptosis of murine osteoclasts mediated by TGF-β,” Nature Medicine 2: 1132-1136, 1996, which is incorporated herein by reference. Briefly, human bone marrow nonadherent mononuclear cells from normal volunteers were cultured at 10^6 cells/ml in α-minimum essential medium and 20% horse serum with or without 10^−8 M 1,25-(OH)2D3 (vitamin D), 200 pg/ml MIP-1α, 20 ng/ml anti-human MIP-1α antibody, and varying concentrations of propagermanium. Five wells of each of ten different culture conditions were prepared in a 96-well plate. Each well contained 10^5 cells and the desired combination of reagents. Half of the culture medium was changed weekly. After approximately three weeks, the cultures were harvested and stained with the 23c6 monoclonal antibody, which identifies the osteoclast vitronectin receptor, and the 23c6-positive multinucleated cells counted. The 23c6 assay is more specific than the TRAP assay (used in Example 1 for mouse osteoclasts) for human osteoclasts.
Results are shown in FIG. 3, a plot of fold increase in osteoclasts over the number of osteoclasts formed in untreated marrow for each set of wells. Well conditions are indicated below the bars. Results are reported as the mean±S.E. for five replicate samples and were compared by Student's t test.

[2] = tested on: mouse bone marrow cells stimulated with MIP-1α; assay: Formation of mouse osteoclasts (TRAP staining) in bone marrow cultures; type: cell-based; settings: 1 μg/ml propagermanium, two different concentrations of MIP-1α, with 10^−11 M vitamin D, FIG. 2
Procedure: Bone marrow cells (10^6 cells/culture) from C57B1 mice were isolated and cultured for osteoclast-like multinucleated cell formation in the presence or absence of 1, 10, or 100 ng/ml MIP-1α, 10^−11 M 1,25-(OH)2D3 (vitamin D), and varying concentrations of anti-human MIP-1α antibody (20 or 100 ng/ml), anti-CCR1 receptor antibody (20 or 100 ng/ml), anti-CCR5 receptor antibody (20 or 100 ng/ml), and 1 μg/ml propagermanium. Twelve different culture compositions were each prepared in four wells of a 48-well plate. After approximately six or seven days, the cultures were stained for the enzyme tartrate-resistant acid phosphatase (TRAP), an enzyme secreted into the circulation by osteoclasts during bone resorption, using an acid phosphatase staining kit (Sigma). TRAP-positive multinucleated cells containing three or more nuclei (assumed to be osteoclasts) were counted with an inverted microscope. The readout can be either the total amount of TRAP (TRAP activity) or the number of osteoclasts.

monocytes = settings: cited from earlier work
macrophages = settings: mouse, in vivo; cited from earlier work

## C=C1/C(=C\C=C2/CCC[C@]3(C)[C@@H]([C@H](C)CCCC(C)(C)O)CC[C@@H]23)C[C@@H](O)C[C@@H]1O [vitamin D, 1,25-(OH)2D3]
[1]
  increase in the number of osteoclasts formed over untreated marrow: greater than two-fold increase

## 3-oxygermylpropionic acid polymer [Propagermanium]
[2]
  reduction of the number of osteoclasts formed: greater than a factor of four
[1]; 200 pg/ml MIP-1α, varying concentrations of propagermanium
  number of osteoclasts formed in response to MIP-1α stimulation: dose-dependent reduction
[1]; 10^−8 M 1,25-(OH)2D3, varying concentrations of propagermanium
  effect on osteoclast formation in response to vitamin D stimulation: no effect
[1]; highest dose of propagermanium, compared with 20 ng/ml anti-human MIP-1α antibody
  inhibition of the effect of MIP-1α on osteoclast formation: comparable to that of the anti-human MIP-1α antibody
monocytes
  chemotactic response of monocytes to the CC chemokine MCP-1: inhibit
  direct interaction with the chemokine receptor CCR2: did not appear to interact directly
macrophages
  recruitment of macrophages into the liver: suppress

B1: MIP-1α: CC chemokine macrophage inflammatory protein-1α, used as osteoclast stimulus (protein, UniProt P10147 24-92, looked up)
C-C motif chemokine 3: SLAADTPTACCFSYTSRQIPQNFIADYFETSSQCSKPGVIFLTKRSRQVCADPSEEWVQKYVSDLELSA
[1]
  increase in the number of osteoclasts formed over untreated marrow: greater than two-fold increase

From patent publication US20030228263A1, “Propagermanium for treating myeloma bone disease and other bone disorders” (SurroMed, Inc., priority 2002, published 2003)
